# According to patent publication US11607417B2, “Uses of celastrol in preventing and/or treating cholestatic liver disease and liver fibrosis” (KUNMING INSTITUTE OF BOTANY, THE CHINESE ACADEMY OF SCIENCES, priority 2017, dated 2023):
# Assays:
# [1] = tested on: ANIT-induced cholestatic liver injury in FXR knockout mice; assay: Effect of FXR on celastrol activity in ANIT model (Example 5); assay type: in vivo, FXR knockout mice (C57BL/6J as background)
# Source text: The same experimental method of Example 1 was used, wherein the experimental animals were FXR knockout mice (C57BL/6J as background), and the FXR knockout mice were presented by Frank J. Gonzalez, a researcher of the Cancer Institute of National Institutes of Health, USA.
# [2] = tested on: ANIT-induced cholestatic liver injury under SIRT1 inhibition; assay: Effect of SIRT1 inhibition (EX527) on celastrol activity in ANIT model (Example 3); assay type: in vivo, C57BL/6 mice
# Protocol: A total of 24 male C57BL/6 mice were divided into four groups: blank group (n=6); model group (n=6); treatment group (n=6); and EX527 group (n=6).
# Celastrol was dissolved in a solvent to obtain a celastrol solution at a concentration of 2 mg/mL, wherein the solvent consisted of 1% DMSO, 2% Tween 80, and 97% water (v:v:v). For intragastrical administration, the dosage of celastrol was 10 mg/kg·d. ANIT was dissolved in corn oil to obtain a corn oil solution of ANIT at a concentration of 15 mg/mL, and the dosage of ANIT for intragastrical administration was 75 mg/kg. EX527 was dissolved in corn oil to obtain a corn oil solution of EX527 at a concentration of 2 mg/mL, and the dosage of EX527 for intraperitoneal injection was 10 mg/kg·d.
# The EX527 group was simultaneously administrated with the celastrol solution and the EX527 corn oil solution for 5 consecutive days. The treatment group was administrated with the celastrol solution and an equal dosage of corn oil for 5 consecutive days. At the same time, the blank group and the model group were administrated with equal dosages of solvent (1% DMSO, 2% Tween 80 and 97% water (v:v:v)) and corn oil, and the solvent was administrated for 5 consecutive days.
# On the 3rd day of administration, ANIT model was established. 4 Hours after administration, the mice in the model group, the treatment group and the EX527 group were respectively intraperitoneally injected with the ANIT corn oil solution at a dosage of 75 mg/kg for single administration to induce cholestatic liver injury, and the blank group was fed with an equal dosage of corn oil. After the model was established on the 3rd day of administration, the treatment group was continuously administrated with celastrol, the EX527 group was continuously administrated with celastrol and EX527, and the blank group and the model group were continuously administrated with the same dosage of solvent. 48 Hours after administration with ANIT, the mice were sacrificed by CO2 anesthesia, and mouse liver samples and plasma samples were taken. The eyeballs of the mice were taken for blood collection. The plasma samples were placed on ice for 1-2 hours, centrifuged at 4000 g for 5 minutes at 4° C., and the supernatants of the plasma samples were taken to determine plasma biochemical indicators, the levels of ALT, AST and ALP.
# At the same time, plasma samples were prepared: 10 μL of plasma sample was taken, mixed well with 190 μL of 67% acetonitrile (containing 5 μM internal standard chlorpropamide), centrifuged at 18000 g for 20 minutes at 4° C., and the supernatant was taken for sample injection. The liquid chromatography conditions were as follows: the injection volume was 5 μL; the temperature of column was 45° C.; the flow rate of mobile phase was 0.3 mL/min; the gradient elution was that acetonitrile concentration changed from 2% to 98% during 16 minutes of operation, wherein the mobile phase (water/acetonitrile solution) contained 0.01% formic acid. The elution procedure was as follows: during 0-12th minute, the acetonitrile concentration changed from 2% to 98% at a constant rate; during 12-14th minute, the acetonitrile concentration was maintained at 98%; during 14-14.1th minute, the acetonitrile concentration changed from 98% to 2%; during 14.1-16th minute, the acetonitrile concentration was maintained at 2%. Mass spectrometry conditions were as follows: the temperature of dry gas was 350° C., the pressure of nebulizer was 35 psi, and the voltage of capillary was 3.5 kV.
# Part of the collected mouse liver tissue was fixed overnight in formalin and tissue sections were stained with hematoxylin and eosin (H&E).
# [3] = method of Example 1, ANIT model, FIG. 5A
# [4] = treatment group: celastrol 10 mg/kg·d, P<0.05, FIG. 3E
smiles,measurement,setting,value
"CC1=C(O)C(=O)C=C2C1=CC=C1[C@@]2(C)CC[C@@]2(C)[C@@H]3C[C@](C)(C(=O)O)CC[C@]3(C)CC[C@]12C [celastrol, Celastrol]",Levels of bile acids in plasma vs ANIT model group,"[1]; CA, DCA, TβMCA/TαMCA, TCA, THDCA/TUDCA, method of Example 1, FIG. 5B",no significant decrease
same,ALP level in plasma vs model group,[1]; [3],no significant decrease
same,ALT level in plasma vs model group,[1]; [3],no significant decrease
same,Levels of bile acids in plasma vs model group,"[2]; CA, DCA, TβMCA/TαMCA, TCA, THDCA/TUDCA, treatment group: celastrol 10 mg/kg·d, FIG. 3F",significantly lower
same,H&E staining of mouse liver tissue,"[2]; treatment group: celastrol 10 mg/kg·d intragastric + corn oil, FIG. 3C",no obvious damage
same,ALP level in plasma vs model group,[2]; [4],lower
same,ALT level in plasma vs model group,[2]; [4],lower
same,AST level in plasma vs model group,[2]; [4],lower
